Like-named read-outs stand apart in the source and are kept apart here.
Assays:
[1] = cited from earlier work
[2] = system: patients with advanced or metastatic breast cancer; experiment: Progression-free survival (Kaplan-Meier, log-rank); assay type: in vivo, human; settings: for PFS: single patient
Source text: This was a prospective, observational PK study. Patients with advanced or metastatic breast cancer who received everolimus between November 2015 and November 2018 at Kobe City Medical Center General Hospital were enrolled in this study. The main inclusion criteria included the following: age ≥20 years; Eastern Cooperative Oncology Group (ECOG) performance status (PS): 0 or 1; and adequate bone marrow, liver, and renal function. The main exclusion criteria were interstitial pneumonia or pulmonary fibrosis, HBsAg positive, and psychiatric or psychological symptoms that made it difficult to participate in the study. Every participant provided written informed consent. This study was conducted in accordance with the Declaration of Helsinki and approved by the Institutional Review Board, under Approval Number zn151103.
Statistical differences in everolimus trough concentrations, doses and body weights between patient cohorts were assessed using the Mann–Whitney test. Progression-free survival (PFS) was assessed using the Kaplan-Meier method and the log-rank test. All statistical analyses were performed using GraphPad Prism version 7.03 (San Diego, CA). p < 0.05 was considered statistically significant.

[3] = patients with breast, kidney and neuroendocrine cancer, ref Deppenweiler et al. (2017)

CO[C@H]1C[C@@H]2CC[C@@H](C)[C@@](O)(O2)C(=O)C(=O)N2CCCC[C@H]2C(=O)O[C@H]([C@H](C)C[C@@H]2CC[C@@H](OCCO)[C@H](OC)C2)CC(=O)[C@H](C)/C=C(\C)[C@@H](O)[C@@H](OC)C(=O)[C@H](C)C[C@H](C)/C=C/C=C/C=C/1C [everolimus]
suggested target trough concentration ([1]; kidney transplant patients, calcineurin-inhibitor-free regimen, ref Shipkova et al., 2016): 6 to 10 ng/mL | trough concentration associated with increased risk of progression [1, 3]: lower than 11.9 ng/ml | trough concentration associated with increased risk of toxicity [1, 3]: higher than 26.3 ng/ml | trough concentration threshold for increased risk of overall severe toxicity ([1]; review, ref Falkowski and Woillard (2019)): higher than 20 ng/ml | increase of risk of toxicity ([1]; trough concentrations higher than 26.3 ng/ml, ref Deppenweiler et al. (2017)): 4 fold | increase of risk of progression ([1]; trough concentrations lower than 11.9 ng/ml, ref Deppenweiler et al. (2017)): 3 fold | suggested target trough concentration ([1]; tuberous sclerosis, ref Combes et al., 2018): 5 to 15 ng/mL | PFS ([2]; case Figure 3A): 8.5 months | PFS ([2]; case Figure 3B): 13.8 months | trough concentration to which adjusting may significantly prolong PFS ([2]; discussion statement): 10 to 20 ng/mL | trough concentration group with significantly longer PFS ([2]; groups <10 (n = 9), 10–20 (n = 6), >20 ng/ml (n = 3), log-rank p = 0.0078): 10 to 20 ng/mL | number of patients with PFS more than 8.5 months ([2]; of 18 patients): 14 | PFS, range ([2]; study population, n = 18): 1.7–55.8 months | median PFS ([2]; study population, n = 18, with exemestane): 13.7 months

Source: publication PMC9520775, “Everolimus pharmacokinetics and exposure-response relationship in Japanese patients with advanced breast cancer” (Frontiers in Pharmacology, 2022)
